In patent publication US4471113A, “Prodrugs based on phospholipid-nucleoside conjugates” (priority 1982, dated 1984):
Where two headings read alike, the source gives them in different places. Values belong to the compound of their own block, whether it stands above or below them.

Key:
deaminase enzymes = conditions: cited from earlier work; for protection of parent drug from catabolic degradation: lipophilic fatty acid esters; for catabolism via deaminase enzymes: to ineffective metabolites
[1] = in vivo studies; cited from earlier work
[2] = test system: mouse myeloma MPC-11 (subclone 66.2) cells; assay: In vitro antiproliferative activity against mouse myeloma MPC-11 (subclone 66.2) cell line; type: cell-based
[3] = Solubilization of suspensions by sonication; type: physicochemical; conditions: aqueous suspension at room temperature
Description: In the study of biological activity of the compositions of Examples 1f and II-VII, it was first necessary to prepare solutions at room temperature. Suspensions of the compounds of Examples 1f and II-VII were all subjected to known sonication techniques in order to aid solubilization. […] Finally, the best means of solubilization was achieved by mixing the sample with araCDP-L-dipalmitin prior to sonication. In this fashion, mixtures having ratios (by weight) of the mono- to diphosphate linked derivatives from 1:2 through to 3:1 were made up and such mixtures were used for the in vitro inhibition studies.

[4] = in vivo; cited from earlier work
[5] = samples made up in H2O, read-out: ED50 (the source's name)
[6] = samples made up in 0.9% saline/0.1 mM Tris, pH 7.1, read-out: ED50 (the source's name)
[7] = solvent not stated, read-out: dose required for 50% inhibition of growth of cells in tissue culture (ED50)

Structure (SMILES): Nc1ccn([C@@H]2O[C@H](COC(=O)C34CC5CC(CC(C5)C3)C4)[C@@H](O)[C@@H]2O)c(=O)n1 [5'-O-adamantoyl-araC]
protection of parent drug from catabolic degradation (deaminase enzymes): protected the parent drug from catabolic degradation

Structure (SMILES): CCCCCCCCCCCCCCCC(=O)OC[C@H]1O[C@@H](n2ccc(N)nc2=O)[C@@H](O)[C@@H]1O [5'-O-palmitoyl-araC]
therapeutic advantage in vivo [1]: no therapeutic advantages
protection of parent drug from catabolic degradation (deaminase enzymes): protected the parent drug from catabolic degradation

Structure (SMILES): CCCCC(=O)OC[C@H]1O[C@@H](n2cnc3c(N)ncnc32)[C@@H](O)[C@@H]1O [5'-O-valeryl-araA]
protection of parent drug from catabolic degradation (deaminase enzymes): protected the parent drug from catabolic degradation

IC50 [2, 5]: 5 µM
Structure (SMILES): CCCCCCCCCCCCCCCC(=O)OC[C@H](COP(=O)(O)OP(=O)(O)OC[C@H]1O[C@@H](n2ccc3c(N)ncnc32)[C@H](O)[C@@H]1O)OC(=O)CCCCCCCCCCCCCCC [TubercidinDP--L-dipalmitin, Tubercidin-5'-diphosphate-L-1,2-dipalmitin]

Structure (SMILES): Nc1ncnc2c1ncn2[C@@H]1O[C@H](CO)[C@@H](O)[C@@H]1O [araA, 9-β-D-arabinofuranosyladenine]
catabolism via deaminase enzymes (deaminase enzymes): rapid catabolism

Structure (SMILES): Nc1ccn([C@@H]2O[C@H](CO)[C@@H](O)[C@@H]2O)c(=O)n1 [araC, 1-β-D-arabinofuranosylcytosine]
IC50 [2, 6]: 0.85 µM
IC50 [2, 5]: 0.99 µM
catabolism via deaminase enzymes (deaminase enzymes): rapid catabolism

IC50 [2, 6]: 13.1 µM
IC50 [2, 7]: 15 µM
Structure (SMILES): CCCCCCCCCCCCCC(=O)OC[C@H](COP(=O)(O)OP(=O)(O)OC[C@H]1O[C@@H](n2ccc(N)nc2=O)[C@@H](O)[C@@H]1O)OC(=O)CCCCCCCCCCCCC [araCDP-L-dimyristin]

IC50 [2, 6]: 43.9 µM
IC50 [2, 7]: 62 µM
Structure (SMILES): CCCCCCCC/C=C\CCCCCCCC(=O)OC[C@H](COP(=O)(O)OP(=O)(O)OC[C@H]1O[C@@H](n2ccc(N)nc2=O)[C@@H](O)[C@@H]1O)OC(=O)CCCCCCC/C=C\CCCCCCCC [araCDP-L-diolein, 1-β-D-Arabinofuranosylcytosine-5'-diphosphate-L-1,2-diolein]

IC50 [2, 6]: 42.1 µM
IC50 [2, 7]: 65 µM
Structure (SMILES): CCCCCCCCCCCCCCCC(=O)OC[C@H](COP(=O)(O)OP(=O)(O)OC[C@H]1O[C@@H](n2ccc(N)nc2=O)[C@@H](O)[C@@H]1O)OC(=O)CCCCCCCCCCCCCCC [araCDP-L-dipalmitin]

solubilization by sonication [3]: remained slightly opalescent
IC50 [2, 6]: 168 µM
IC50 [2, 7]: 195 µM
Structure (SMILES): CCCCCCCCCCCCCCCCCC(=O)OC[C@H](COP(=O)(O)OP(=O)(O)OC[C@H]1O[C@@H](n2ccc(N)nc2=O)[C@@H](O)[C@@H]1O)OC(=O)CCCCCCCCCCCCCCCCC [araCDP-L-distearin, 1-β-D-Arabinofuranosylcytosine-5'-diphosphate-L-1,2-distearin]

Structure (SMILES): CCCCCCCCCCCCCCCC(=O)OC[C@H](COP(=O)(O)OC[C@H]1O[C@@H](n2ccc(N)nc2=O)[C@@H](O)[C@@H]1O)OC(=O)CCCCCCCCCCCCCCC [araCMP-L-dipalmitin]
solubilization by sonication [3]: resisted solubilization even when samples were mixed with several types of detergent prior to sonication

Structure (SMILES): O=c1ccn([C@@H]2O[C@H](CO)[C@@H](O)[C@@H]2O)c(=O)[nH]1 [araU, 1-β-D-arabinofuranosyluracial]
appearance of metabolite in urine [4]: appears rapidly in human urine
